In assay [1] the test system is 1205 Lu metastatic melanoma cells. Briefly: MTS assay viability IC50, 1205 Lu. Format: cell-based, human. The procedure: (§1) The efficacy of leelamine to kill other cancer types is measured and the IC50 for cell lines derived from carcinomas of breast, lung, prostate, connective tissue, pancreas and colon determined. The MTS assay as described in Sharma, A. et al., Clin Cancer Res, 2009, 15:1674-85; and Madhunapantula, S. V. et al., Mol Cancer Ther, 2008, 7:1297-308 is used to establish the IC50 at 24, 48 and 72 hours of leelamine treatment for normal human epidermal melanocytes (FOM103), normal skin fibroblast cells (FF2441), normal skin keratinocytes (HFK) and compared to melanocytic lesion cells from the radial-, vertical- and metastatic melanoma stages. 5×10^3 cells per well in 100 μL of media are plated and grown in a 96-well plate for 48 to 72 hours and treated with either DMSO vehicle control or 0.62 to 40 μmol/L of leelamine for 24, 48 or 72 hours. IC50 values for each compound in μmol/L for respective cell lines are measured from three independent experiments using GraphPad Prism version 4.01 (GraphPad Software, La Jolla, Calif.). Leelamine is found to be not toxic to normal cells and effective to kill melanoma cells as well as non-melanoma cancer cells as shown in Table 1 in FIG. 20. Leelamine is 3- to 4-fold more specific at killing metastatic melanoma than normal cells, supporting cancer therapeutic utility at concentrations<2 μmol/L.
(§2) 5×10^3 cells per well in 100 μL of media are plated and grown in a 96-well plate for 48 to 72 hours and treated with either DMSO vehicle control or 0.62 to 40 μmol/L of leelamine for 24, 48 or 72 hours. IC50 values for each compound in μmol/L for respective cell lines are measured from three independent experiments using GraphPad Prism version 4.01 (GraphPad Software, La Jolla, Calif.).
(§3) The IC50 and effect of liposomal preparations of leelamine on viability of normal human melanocytes, fibroblasts and melanoma cells UACC 903 and 1205 Lu are measured using the MTS assay (Promega, Madison, Wis.). Empty liposomes or liposomes containing abietic acid are used as controls. 5×10^3 cells per well in 100 μL of media are plated and grown in a 96-well plate for 48 or 72 hours for melanoma and normal cell lines, respectively. The cells are then treated with 0.62 to 40 μmol/L of liposome alone, a liposomal preparation of abietic acid, or with Nanolipolee-007 for 24 hours. IC50 values for each liposome in μmol/L for respective cell lines are measured from three independent experiments using GraphPad Prism version 4.01 (GraphPad Software, La Jolla, Calif.). Nanolipolee-007 retains the growth inhibitory activity of leelamine in killing melanoma cells in culture and specifically kills melanoma cells compared to normal cells, FIG. 24.
(§4) Dehydroabietylamine, its N-substituted derivatives and the corresponding dihydroabietylamine and its N-substituted derivatives are tested for their capability to inhibit cell growth of cancer cell lines, including melanoma (UACC 903, 1205Lu), breast (MCF-7), fibrosarcoma (HT-1080), colon (Caco-2), and prostate (PC-3) cancer cell lines. Viability and IC50 of normal human fibroblasts and cell lines from melanoma and other malignancies following treatment with all the agents are measured using the MTS assay (Promega, Madison, Wis.). Human fibroblast FF2441 cells, metastatic melanoma cell lines 1205 Lu and UACC 903 as well as cancer cell lines representing sarcoma (HT-1080), prostate (PC-3, LNCaP), breast (MCF-7) and lung (A-549) are maintained in DMEM (Invitrogen, Carlsbad, Calif.) supplemented with 10% FBS (Hyclone, Logan, Utah) in a 5% CO2 atmosphere, humidified 37° C. incubator. 5×10^3 cells per well in 100 μL of media are plated and grown in a 96-well plate for 48 to 72 h and treated with either DMSO vehicle control or 0.62 to 40 μmol/L for 24, 48 or 72 h. IC50 values for each compound in […] for respective cell lines are measured from three independent experiments using GraphPad Prism version 4.01 (GraphPad Software, La Jolla, Calif.). […]

In assay [2] the test system is FF2441 normal human fibroblasts. Briefly: MTS assay viability IC50, normal fibroblasts. Format: cell-based. Particulars: read-out: IC50 Normal fibroblast FF2441. Here is the method: as §1
5×10^3 cells per well in 100 μL of media are plated and grown in a 96-well plate for 48 to 72 hours and treated with either DMSO vehicle control or 0.62 to 40 μmol/L of leelamine for 24, 48 or 72 hours. IC50 values for each compound in μmol/L for respective cell lines are measured from three independent experiments using GraphPad Prism version 4.01 (GraphPad Software, La Jolla, Calif.). […]
(§5) Dehydroabietylamine, its N-substituted derivatives and the corresponding dihydroabietylamine and its N-substituted derivatives are tested for their capability to inhibit cell growth of cancer cell lines, including melanoma (UACC 903, 1205Lu), breast (MCF-7), fibrosarcoma (HT-1080), colon (Caco-2), and prostate (PC-3) cancer cell lines. Viability and IC50 of normal human fibroblasts and cell lines from melanoma and other malignancies following treatment with all the agents are measured using the MTS assay (Promega, Madison, Wis.). Human fibroblast FF2441 cells, metastatic melanoma cell lines 1205 Lu and UACC 903 as well as cancer cell lines representing sarcoma (HT-1080), prostate (PC-3, LNCaP), breast (MCF-7) and lung (A-549) are maintained in DMEM (Invitrogen, Carlsbad, Calif.) supplemented with 10% FBS (Hyclone, Logan, Utah) in a 5% CO2 atmosphere, humidified 37° C. incubator. 5×10^3 cells per well in 100 μL of media are plated and grown in a 96-well plate for 48 to 72 h and treated with either DMSO vehicle control or 0.62 to 40 μmol/L for 24, 48 or 72 h. IC50 values for each compound in […] for respective cell lines are measured from three independent experiments using GraphPad Prism version 4.01 (GraphPad Software, La Jolla, Calif.). FIG. 52 is a graph showing IC50 values for leelamine and compounds 4a, 4b and 5a in treated fibroblasts (FF2441) compared to melanoma cells. Selectivity ratio here is defined as ratio of activity against fibroblasts compared to activity against melanoma cells. Leelamine is relatively selective with a ratio of >6 and >4 for UACC903 and 1205Lu melanoma cells. The selectivity ratio of compound 4a is ˜4 and ˜3 for UACC903 and 1205Lu and for compound 4b is ˜4 for both cell lines. The selectivity ratio of compound 5a is ˜4 for UACC903 and >2 for 1205Lu cells.
On the technique in general: Tetrazolium assays rely on reduction of a dye to a coloured formazan, in cell work by metabolically active cells.

Assay [3] concerns UACC 903 metastatic melanoma cells. As to the kind of experiment: MTS assay viability IC50, UACC 903. Format: cell-based, human. Here is the method:
as §1, §2, §3, §4

In assay [4] the test system is melanoma cell lines (UACC 903, 1205Lu). As to the kind of experiment: MTS assay, melanoma cell lines (cell line not given). Conditions: Homo sapiens; Example 8. Format: cell-based, human. The procedure: The mechanistic basis of leelamine's activity to inhibit melanoma cell growth is determined by examining the effect of leelamine on 1) cell viability using the MTS assay; 2) proliferation using a BrdU incorporation assay; 3) apoptosis using an assay for caspase-3/7 activity; and 4) cell cycle analysis. The MTS assay as described in Sharma, A. et al., Clin Cancer Res, 2009, 15:1674-85; and Madhunapantula, S. V. et al., Mol Cancer Ther, 2008, 7:1297-308 is used to assay cell viability. Rates of proliferation and apoptosis are measured by seeding 5×10^3 cells in 96-well plates, followed by treatment with 0.62 to 10 μmol/L of leelamine for 24 hours. Proliferating and apoptotic cells are quantified using a colorimetric cell proliferation ELISA BrdU kit (Roche diagnostics, Indianapolis, Ind.) or Apo-ONE Homogenous caspase-3/7 assay kit (Promega, Madison, Wis.), respectively, as described in Sharma, A. et al., Clin Cancer Res, 2009, 15:1674-85; and Madhunapantula, S. V. et al., Mol Cancer Ther, 2008, 7:1297-308.
as §5

Setting [5] is: Table 4, read-out: IC50 Metastatic Melanoma Cell line 1205Lu.
The mark [6] stands for this setting: Table 4, read-out: IC50 Metastatic Melanoma Cell line UACC903.
[7] abbreviates: Homo sapiens, 1205Lu, Table 4, read-out: IC50 Metastatic Melanoma Cell line 1205Lu.
Setting [8] is: Homo sapiens, 1205Lu, Table 6, read-out: IC50 Metastatic melanoma 1205 Lu.
[9] abbreviates: Homo sapiens, UACC-903, Example 8, read-out: IC50 UACC 903.
The mark [10] stands for this setting: Homo sapiens, UACC-903, Table 4, read-out: IC50 Metastatic Melanoma Cell line UACC903.
[11] abbreviates: Homo sapiens, UACC-903, Table 6, read-out: IC50 Metastatic melanoma UACC 903.
The mark [12] stands for this setting: Homo sapiens, UACC-903, Table 7, read-out: IC50 (UACC903).
Setting [13] is: Homo sapiens, 1205Lu, Example 8, read-out: IC50 1205Lu.

These results are taken from US9839618B2, “Compositions and methods relating to proliferative diseases” (The Penn State Research Foundation, priority 2010, dated 2017).

Like-named read-outs stand apart in the source and are kept apart here.

For `CCOC[C@]1(C)CCC[C@]2(C)C3CCC(C(C)C)C=C3C=CC12` (stereo partly drawn) [Compound 2a], the IC50 in assay [1] (setting [5]), in assay [2] (Table 4) and in assay [3] (setting [6]) was more than 100 µM in each case.

`CC(C)C1C=C2C=CC3[C@](C)(CO)CCC[C@]3(C)C2CC1` (stereo partly drawn) [Compound 2b, [(1R,4aR)-1,4a-dimethyl-7-(propan-2-yl)-1,2,3,4,4a,4b,5,6,7,100a-decahydrophenanthren-1-yl]methanol]: the IC50 was 60 µM in assay [1] (Example 8, read-out: IC50 1205Lu); 60.4 ± 1.61 µM in assay [1] (setting [5]); 60.4 ± 1.61 µM in assay [1] (Table 6, read-out: IC50 Metastatic melanoma 1205 Lu); more than 100 µM in assay [2] (Table 4); more than 100 µM in assay [2] (Table 6); 53 µM in assay [3] (Example 8, read-out: IC50 UACC 903). Further, the half-maximal inhibitory concentration (IC50) in assay [3] (setting [6]) turned out to be 52.6 ± 1.34 µM; in assay [3] (Table 6, read-out: IC50 Metastatic melanoma UACC 903), 52.6 ± 1.34 µM; in assay [3] (Table 7, read-out: IC50 (UACC903)), 52.6 µM.

As to `CC(C)C1=CC2=CCC3[C@](C)(CCC[C@@]3(C)C(N)=O)C2CC1` (stereo partly drawn) [Compound 3a, (1R,4aR)-1,4a-dimethyl-7-(propan-2-yl)-1,2,3,4,4a,4b,5,6,10,10a-decahydrophenanthrene-1-carboxamide], the 50% inhibitory concentration (IC50) in assay [1] (setting [7]) is 81.1 ± 2.09 µM; in assay [1] (setting [8]) it was 81.1 ± 2.09 µM; in assay [2] (Table 6), more than 100 µM; in assay [3] (setting [9]) it was 70 µM; in assay [3] (setting [10]), 70.1 ± 1.8 µM; in assay [3] (setting [11]), 70.1 ± 1.8 µM. Moreover, the half-maximal inhibitory concentration (IC50) in assay [3] (setting [12]) came to 70.1 µM.

On to `CCN(CC)C(=O)[C@]1(C)CCC[C@]2(C)C3CCC(C(C)C)=CC3=CCC21` (stereo partly drawn) [Compound 3c, (1R,4aR)-N,N-diethyl-1,4a-dimethyl-7-(propan-2-yl)-1,2,3,4,4a,4b,5,6,10,10a-decahydrophenanthrene-1-carboxamide], for which the IC50 in assay [4] is more than 100 µM.

Turning to `CCN(CC)C[C@]1(C)CCC[C@]2(C)C3CCC(C(C)C)=CC3=CCC12` (stereo partly drawn) [Compound 4c, {[(1R,4aR)-1,4a-dimethyl-7-(propan-2-yl)-1,2,3,4,4a,4b,5,6,10,10a-decahydrophenanthren-1-yl]methyl}diethylamine], the IC50 in assay [1] (setting [13]) is 24.3 µM; in assay [1] (setting [7]), 24.3 ± 2.5 µM; in assay [1] (setting [8]), 24.3 ± 2.5 µM; in assay [2] (Table 6) it was more than 100 µM; in assay [3] (setting [9]), 24.4 µM; in assay [3] (setting [10]) it was 24.4 ± 1.33 µM. The IC50 was determined as 24.4 ± 1.33 µM in assay [3] (setting [11]) and 24.4 µM in assay [3] (setting [12]).

Turning to `CC(=O)NC[C@]1(C)CCC[C@]2(C)c3ccc(C(C)C)cc3CCC12` (stereo partly drawn) [Compound 5b, N-{[(1R,4aS)-1,4a-dimethyl-7-(propan-2-yl)-1,2,3,4,4a,9,10,10a-octahydrophenanthren-1-yl]methyl}acetamide], the IC50 in assay [1] (setting [13]) was more than 50 µM; in assay [1] (setting [7]) it was more than 50 µM; in assay [2] (Table 6), more than 100 µM; in assay [3] (setting [9]), 89 µM; in assay [3] (setting [11]) it was 89.4 ± 3.31 µM; in assay [3] (setting [12]) it was 89.4 µM.

Regarding `CC(C)c1ccc2c(c1)CCC1[C@](C)(CNC(=O)c3ccccc3)CCC[C@]21C` (stereo partly drawn) [Compound 5c, N-(((1R,4aS)-7-isopropyl-1,4a-dimethyl-1,2,3,4,4a,9,10,10a-octahydrophenanthren-1-yl)methyl)benzamide], the half-maximal inhibitory concentration (IC50) in assay [4], in assay [3] (setting [11]) and in assay [3] (setting [12]) was more than 100 µM in each case.

As to `CC(C)c1ccc2c(c1)CCC1[C@](C)(CNCc3ccccc3)CCC[C@]21C` (stereo partly drawn) [Compound 5d, N-benzyl-1-((1R,4aS)-7-isopropyl-1,4a-dimethyl-1,2,3,4,4a,9,10,10a-octahydrophenanthren-1-yl)methanamine], the half-maximal inhibitory concentration (IC50) in assay [4] stood at 6 µM; in assay [3] (setting [10]), 6.05 ± 1.32 µM; in assay [3] (setting [11]), 6.05 µM; in assay [3] (setting [12]), 6.05 µM.

For the compound `CC(C)c1ccc2c(c1)CCC1[C@](C)(CNC(c3ccccc3)(c3ccccc3)c3ccccc3)CCC[C@]21C` (stereo partly drawn) [Compound 5e, {[(1R,4aS)-1,4a-dimethyl-7-(propan-2-yl)-1,2,3,4,4a,9,10,10a-octahydrophenanthren-1-yl]methyl}(triphenylmethyl)amine], the IC50 in assay [4] was more than 100 µM.

As for `CC(C)c1ccc2c(c1)CCC1[C@](C)(CNC(=O)C(Br)(Br)Br)CCC[C@]21C` (stereo partly drawn) [GPR-5L, N-{[(1R,4aS)-1,4a-dimethyl-7-(propan-2-yl)-1,2,3,4,4a,9,10,10a-octahydrophenanthren-1-yl]methyl}-2,2,2-tribromoacetamide], the IC50 is 1.88 ± 0.21 µM in assay [1] (setting [8]), 1.01 ± 0.08 µM in assay [3] (setting [11]) and 1.01 µM in assay [3] (setting [12]).

In general, IC50 refers to the concentration at which inhibition is half-maximal.
